The values that follow come from patent publication US9289400B2, “D3 dopamine receptor agonists to treat dyskinesia in parkinson's disease” (priority 2010, dated 2016).

Assay type in all cases: cell-based
One assay concerns the target D2L dopamine receptor (Homo sapiens (Human), UniProt P14416). Briefly: cell-based. On the procedure:
(§1) The ability of the lead compound to dose-dependently decrease forskolin-induced cAMP levels is measured. The IC50 values for each receptor subtype is determined by fitting the data points using the Hill equation.
(§2) AtT-20 mouse pituitary cells were grown in Ham's F10 medium with 5% FBS, 10% heat-inactivated horse serum, 2 mM glutamine and 50 μg/ml gentamicin (Invitrogen, Carlsbad, Calif.). AtT-20 cells stabling expressing the human D2S, D2L, D3, and D4.2 and receptor were maintained in the above F10 culture media supplemented with 500 μg/ml G418 (Invitrogen). For electrophysiological characterization, cells were plated onto glass coverslips coated with 40 μg/ml poly L-lysine (Sigma-Aldrich). […] Physiol. […] Neurosci. […] Biophys. […] Neurosci.
(§3) The cAMP levels in each treated sample were assayed in triplicate and the entire experiment repeated three independent times.
(§4) To compare the functional effects of the new class of D3 receptor agonists, PBZI (Table 2) and ES609 (Table 3) were tested on AtT-20 cells stably expressing human D3, D2S, D2L or D4.2.

The target in a further assay is D4.2 dopamine receptor (Homo sapiens (Human), UniProt P21917, DEL265-296). Briefly: cell-based. How it is done:
as §1, §2, §3, §4

For a further assay, the target named is D3 dopamine receptor (Homo sapiens (Human), UniProt P35462). The assay is described as follows: GIRK channel activation, whole cell voltage clamp, AtT-20 cells stably expressing D3. Conditions: for specificity of agonist effect (eticlopride pretreatment / parental cells): D2/D3 antagonist eticlopride (100 nM); for GIRK channel activation: agonist type / pEC50: D3; for GIRK channel activation: agonist type: versus full agonist quinpirole; for pEC50: GIRK channel activation EC50, AtT-20 cells. How it is done:
The activation of the GIRK channels was measured electrophysiologically using whole cell voltage clamp recording (Kuzhikandathil et al., 2004, Mol. Cell. Neurosci. 26:144-155). […]. The adenylyl cyclase inhibition was determined using a commercially available ELISA assay (Westrich & Kuzhikandathil, 2007, Biochim. Biophys. Acta-Mol. Cell. Res. 1773:1747-1758).
. In the initial screen, the ability of 300 nM lead compound to activate G-protein coupled inward rectifier potassium (GIRK) channels (FIG. 1) is measured using whole cell voltage clamp recording. The protocol has been previously used for performing whole cell voltage clamp and measuring agonist-induced GIRK response. […]. The EC50 values for each receptor subtype is determined by fitting the data points using the Hill equation.
AtT-20 mouse pituitary cells were grown in Ham's F10 medium with 5% FBS, 10% heat-inactivated horse serum, 2 mM glutamine and 50 μg/ml gentamicin (Invitrogen, Carlsbad, Calif.). AtT-20 cells stabling expressing the human D2S, D2L, D3, and D4.2 and receptor were maintained in the above F10 culture media supplemented with 500 μg/ml G418 (Invitrogen). For electrophysiological characterization, cells were plated onto glass coverslips coated with 40 μg/ml poly L-lysine (Sigma-Aldrich). […]. Physiol. 115:697-706; Kuzhikandathil et al., 1998, Mol. Cell. Neurosci. 12:390-402; Kuzhikandathil & Bartoszyk, 2006, Neuropharm. 51:873-884; Westrich & Kuzhikandathil, 2007, Biochim. Biophys. Acta-MCR 1773:1747-1758; Kuzhikandathil et al., 2004, Mol. Cell. Neurosci. 26:144-155; Westrich et al., 2010, Biochem. Pharmacol. 79:897-907).
Agonist-activated currents were measured by the whole-cell patch clamp technique in voltage clamp and current clamp mode as described previously (Kuzhikandathil & Oxford, 2000, J. Gen. Physiol. 115:697-706; Kuzhikandathil et al., 1998, Mol. Cell. Neurosci. 12:390-402; Kuzhikandathil & Bartoszyk, 2006, Neuropharm. 51:873-884; Westrich & Kuzhikandathil, 2007, Biochim. Biophys. Acta-MCR 1773:1747-1758; Kuzhikandathil et al., 2004, Mol. Cell. Neurosci. 26:144-155; Westrich et al., 2010, Biochem. Pharmacol. 79:897-907). Drug solutions were delivered to cells via a multi-barreled micropipette array. The current responses were normalized to the cell capacitance, to account for variation in cell size.
To compare the functional effects of the new class of D3 receptor agonists, PBZI (Table 2) and ES609 (Table 3) were tested on AtT-20 cells stably expressing human D3, D2S, D2L or D4.2. […]. The EC50 values of PBZI and ES609 for inhibiting adenylyl cyclase and activating GIRK channels were in the range of 0.2 nM to 30 nM for D3 receptors. […]. […]

pEC50: −log10 of the molar value. “And” between values parts separate entries of the source, which are not always exact repeats. Equal entries are not always repeated. Where two headings read alike, the source gives them in different places. Marks after values point to notes of the source that are not given here.

Chain of D4.2 dopamine receptor (P21917 other isoform, or with tags, fused parts or gaps del 265-296): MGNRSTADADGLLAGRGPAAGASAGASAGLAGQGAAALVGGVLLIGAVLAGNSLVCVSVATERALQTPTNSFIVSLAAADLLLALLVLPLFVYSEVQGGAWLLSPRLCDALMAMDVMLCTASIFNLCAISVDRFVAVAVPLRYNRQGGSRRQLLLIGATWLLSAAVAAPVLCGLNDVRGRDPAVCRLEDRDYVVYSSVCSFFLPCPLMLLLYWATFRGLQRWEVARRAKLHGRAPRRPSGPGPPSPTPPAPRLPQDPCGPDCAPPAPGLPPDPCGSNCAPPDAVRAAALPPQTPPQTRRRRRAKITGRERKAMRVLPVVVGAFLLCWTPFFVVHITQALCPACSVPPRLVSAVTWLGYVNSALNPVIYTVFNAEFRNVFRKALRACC
Chain of D3 dopamine receptor (P35462 other isoform, or with tags, fused parts or gaps): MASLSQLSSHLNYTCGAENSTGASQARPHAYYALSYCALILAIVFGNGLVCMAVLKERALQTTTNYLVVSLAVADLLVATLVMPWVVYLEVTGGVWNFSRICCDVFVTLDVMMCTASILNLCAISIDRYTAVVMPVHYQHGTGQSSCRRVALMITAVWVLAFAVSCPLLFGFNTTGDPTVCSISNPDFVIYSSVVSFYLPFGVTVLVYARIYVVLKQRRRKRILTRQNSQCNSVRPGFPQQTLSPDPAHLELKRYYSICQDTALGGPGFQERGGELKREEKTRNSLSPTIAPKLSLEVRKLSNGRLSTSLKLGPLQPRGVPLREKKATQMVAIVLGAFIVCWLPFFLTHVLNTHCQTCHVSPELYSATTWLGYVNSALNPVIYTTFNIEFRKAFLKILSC
Chain of D2L dopamine receptor (P14416 whole entry): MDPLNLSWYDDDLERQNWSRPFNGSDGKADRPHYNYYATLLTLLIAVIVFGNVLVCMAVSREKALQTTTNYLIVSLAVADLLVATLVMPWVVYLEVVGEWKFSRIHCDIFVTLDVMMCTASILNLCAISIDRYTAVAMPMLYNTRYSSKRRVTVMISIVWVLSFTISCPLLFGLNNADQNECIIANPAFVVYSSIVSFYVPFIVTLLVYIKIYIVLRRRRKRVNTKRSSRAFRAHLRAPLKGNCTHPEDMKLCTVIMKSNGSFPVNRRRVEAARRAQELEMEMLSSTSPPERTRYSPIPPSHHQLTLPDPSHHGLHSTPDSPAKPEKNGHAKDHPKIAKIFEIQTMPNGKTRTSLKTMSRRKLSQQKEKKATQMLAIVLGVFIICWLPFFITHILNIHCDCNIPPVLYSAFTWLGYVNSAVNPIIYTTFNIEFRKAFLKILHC

Regarding `CC(N)CCc1ccccc1Cl` (stereo not shown) [ES609], the “Adenylyl cyclase inhibition: agonist type” value is recorded as “did not elicit any response” on D2L dopamine receptor, “No response” at D2L dopamine receptor (listed as ES0609), “partial agonist” on D4.2 dopamine receptor and “Partial” on D4.2 dopamine receptor (listed as ES0609). For the same molecule, the “Adenylyl cyclase inhibition EC50” value on D2L dopamine receptor (AtT-20 cells, D2L) is listed as “No response”. Besides, the “Adenylyl cyclase inhibition Ratio of ES609 to quinpirole response (at 300 nM)” value was 0^† at D2L dopamine receptor (D2L, 300 nM) and 0.60* on D4.2 dopamine receptor (D4.2, 300 nM). The “adenylyl cyclase inhibition at 300 nM” value at D2L dopamine receptor (D2L, 300 nM) is “^†no adenylyl cyclase inhibition in the presence of 300 nM ES609; but 300 nM quinpirole elicits ~80% inhibition”. Besides, the pEC50 at D4.2 dopamine receptor (AtT-20 cells, D4.2, read-out: Adenylyl cyclase inhibition EC50) is 9.09; on D3 dopamine receptor, 7.52. For the same molecule, the “specificity of agonist effect (eticlopride pretreatment / parental cells)” value on D3 dopamine receptor is listed as “blocked by pretreatment with the antagonist, eticlopride”. Moreover, the “GIRK channel activation Ratio of ES609 to quinpirole response (at 300 nM)” value on D3 dopamine receptor (D3, 300 nM) was 0.86. In addition, the “GIRK channel activation: agonist type” value at D3 dopamine receptor is “full agonist”; on D3 dopamine receptor (listed as ES0609), “Full”.

With `CCCN1CC[C@@H]2c3cc(O)ccc3CC[C@@H]21` [PBZI, (3aS,9bR)-3-propyl-1,2,3a,4,5,9b-hexahydrobenzo[e]indol-8-ol], the “Adenylyl cyclase inhibition: agonist type” value on D2L dopamine receptor is “full agonist and full”. Also, the pEC50 at D2L dopamine receptor (AtT-20 cells, D2L, read-out: Adenylyl cyclase inhibition EC50) was 7.17. The “Adenylyl cyclase inhibition Ratio of PBZI to quinpirole response (at 300 nM)” value on D2L dopamine receptor (D2L, 300 nM) was determined as 0.83. Besides, at D4.2 dopamine receptor, the “Adenylyl cyclase inhibition: agonist type” value was “elicited no response and no”. The “Adenylyl cyclase inhibition EC50” value on D4.2 dopamine receptor (AtT-20 cells, D4.2) is “No response”. Further, on D4.2 dopamine receptor (D4.2, 300 nM), the “Adenylyl cyclase inhibition Ratio of PBZI to quinpirole response (at 300 nM)” value is 0^† and the “adenylyl cyclase inhibition at 300 nM” value is on record as “^†no adenylyl cyclase inhibition in the presence of 300 nM PBZI; but 300 nM quinpirole elicits ~70% inhibition”. Also, at D3 dopamine receptor, the “specificity of agonist effect (eticlopride pretreatment / parental cells)” value is recorded as “specific for D3 receptors”; the “GIRK channel activation: agonist type” value is “full agonists and full”; the negative-log EC50 (pEC50) is 7.52 and 7.54. The “GIRK channel activation Ratio of PBZI to quinpirole response (at 300 nM)” value at D3 dopamine receptor (D3, 300 nM) came out at 1.3.
